Reference: patent publication US9593149B2, “Amylin and calcitonin receptor agonist” (Novo Nordisk A/S, priority 2014, dated 2017)
pEC50, pIC50: −log10 of the molar value. Peptide text beside a SMILES is read from it. * marks the point of attachment. C18 diacid = O=C(O)CCCCCCCCCCCCCCCCC(=O)*

Experiments:
[1] = molecular target: T1, human amylin 3(a) receptor (human calcitonin receptor + RAMP-3), BHK570 cells (Homo sapiens, UniProt O60896+P30988); experiment: Assay (II)b functional CRE-luciferase assay without albumin, human amylin receptor; format: cell-based; details: Tested without HSA; read-out: hAmylin-R funct. EC50
T1 construct: host or cells: BHK570
Description: (§1) Assay(II)b—Human Calcitonin and Amylin Receptor Assay without Albumin
(§2) 1. Luciferase Assay Outline
(§3) Activation of calcitonin and amylin (co-expression of calcitonin receptor and receptor activity modifying proteins (RAMP)) receptors lead to increased intracellular concentrations of cAMP. Consequently, transcription is activated by promoters containing multiple copies of the cAMP response element (CRE). It is thus possible to measure amylin activity by the use of a CRE luciferase reporter gene introduced into BHK cells also expressing calcitonin or amylin receptors.
(§4) 2. Construction of Calcitonin (a)—and Amylin 3(a)—Receptor/CRE-Luc Cell Line.
(§5) A BHK570 cell line was stably transfected with the human calcitonin receptor and a CRE-responsive luciferase reporter gene (Hollex-1 cell line, obtained from ZymoGenetics described in U.S. Pat. No. 5,622,839). The cell line was further transfected with RAMP-3, using standard methods. This turns the calcitonin receptor into an amylin 3(a) receptor. Methotrexate, Neomycin, and Hygromycin are selection markers for luciferase, the calcitonin receptor, and RAMP-3, respectively. To prepare the batches of frozen cells used in the luciferase assay described in the section below, the cells were cultured in growth medium (DMEM with 10% FBS, 1% Pen/Strep and 1 mM Napyruvate). […] Cells at approximately 80-90% confluence were washed with PBS and loosened from the plates with Versene. After centrifugation (2 min, 1300 rpm, in a Centrion Scientific centriuge C2 series with a BRK 5510 rotor head), the cell pellet was dissolved in 10% DMSO, 30% FBS and 60% growth medium and frozen (−80° C.) until utilization.
(§6) The day before the experiment, BHK calcitonin (a) receptor- or amylin 3(a)-receptor/CRE-luc cells were thawed, washed twice, and seeded in 40 μl growth medium on white 384 well culture plates (4.000 cells/well). On the assay day, the cells were washed 3 times in assay media (Dulbecco media W/o phenol red, 500 ml (Gibco, 11880-028); 0.1% ovalbumin; 10 mM Hepes pH 7.4; 1× Glutamin; 1% Pen/Strep). Then, 30 μl/well of sample diluted in assay buffer was added. After 3 hours of incubation at 37° C. and 5% CO2, the reaction was terminated by adding 30 μl/well SteadyLite Plus™. The plates were shaken at 300 rpm for 5 min at RT. Then, the plates were sealed and incubated at room temperature for 30 minutes. Finally, luminescence was tested on a TopCounter (Packard) in SPC (single photon counting) mode.
(§7) Additional Comment Regarding Use of Data Retrieved Via this Method
(§8) For the same reasons, measurements made in Assay IIa should not be compared in Assay IIb.

[2] = molecular target: T2, human calcitonin (a) receptor, BHK570 cells (Homo sapiens, UniProt P30988); experiment: Assay (II)b functional CRE-luciferase assay without albumin, human calcitonin receptor; format: cell-based; details: Tested without HSA; read-out: hCTR funct. EC50
T2 construct: host or cells: BHK570
T2 sequence (P30988 25-474): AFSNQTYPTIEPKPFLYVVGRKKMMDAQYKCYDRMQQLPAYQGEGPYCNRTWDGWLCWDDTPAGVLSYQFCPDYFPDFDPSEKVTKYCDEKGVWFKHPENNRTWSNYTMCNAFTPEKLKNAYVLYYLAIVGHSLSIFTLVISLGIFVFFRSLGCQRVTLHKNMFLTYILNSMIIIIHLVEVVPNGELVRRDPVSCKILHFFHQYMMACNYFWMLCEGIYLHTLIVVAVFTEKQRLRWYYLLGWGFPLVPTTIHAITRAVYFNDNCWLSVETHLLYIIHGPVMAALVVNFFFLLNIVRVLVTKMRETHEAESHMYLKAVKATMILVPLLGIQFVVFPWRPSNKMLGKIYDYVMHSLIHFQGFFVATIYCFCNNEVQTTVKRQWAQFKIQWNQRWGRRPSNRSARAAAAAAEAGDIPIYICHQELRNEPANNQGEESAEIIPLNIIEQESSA
Description: as §1, §2, §3, §4, §5, §6, §7, §8

[3] = molecular target: T3, human amylin receptor (human calcitonin receptor + human RAMP3), BHK tk'ts 13 cells (Homo sapiens, UniProt O60896+P30988); experiment: Assay (Va) binding to the human amylin receptor (whole cell); details: read-out: hAmylin-R binding IC50
T3 construct: expressed in transfected cells; host or cells: BHK tk'ts 13
Procedure: The day before the assay the cells were Seeded into Poly-D-Lysin coated 384W Opaque White, BD BioCoat plates (10000 cells/well) and Incubated overnight at 37° C., 5% CO2, 95% humidity.

[4] = Assay (IV) determination of solubility; format: physicochemical
Procedure: Assay (IV)—Determination of Solubility
The mimylin peptide was dissolved in water at ˜500 nmol/ml and mixed 1:1 with a series of buffers (100 mM glycylglycine pH 3.0, 100 mM glycylglycine pH 4.0, 100 mM glycylglycine pH 5.0, 100 mM bistrispropane pH 6.0, 100 mM bistrispropane pH 6.5, 100 mM bistrispropane pH 7.0, 100 mM bistrispropane pH 7.5, 100 mM bistrispropane pH 8.0).

T1 sequence (O60896 24-148, one chain of several): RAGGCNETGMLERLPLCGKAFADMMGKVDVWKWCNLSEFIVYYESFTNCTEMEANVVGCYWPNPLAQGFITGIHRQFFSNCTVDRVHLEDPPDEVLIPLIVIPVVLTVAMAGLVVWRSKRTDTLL
T3 sequence (O60896 24-148, one chain of several): as above

pEC50 [1] | pEC50 [2] | pIC50 [3] | solubility at 18 h ([4]; bistrispropane buffer, pH 6.5) [µM] | solubility at 18 h ([4]; bistrispropane buffer, pH 7.5) [µM] | solubility at 18 h ([4]; bistrispropane buffer, pH 6.0) [µM] | solubility at 18 h ([4]; bistrispropane buffer, pH 7.0) [µM] | solubility at 18 h ([4]; bistrispropane buffer, pH 8.0) [µM] | solubility at 18 h ([4]; glycylglycine buffer, pH 3.0) [µM] | solubility at 18 h ([4]; glycylglycine buffer, pH 4.0) [µM] | solubility at 18 h ([4]; glycylglycine buffer, pH 5.0) [µM] | Compound
10.85 | 11.52 | 8.29 | – | – | – | – | – | – | – | – | CC(C)C[C@H](NC(=O)[C@H](C)NC(=O)[C@H](C)NC(=O)[C@@H](NC(=O)[C@H](CO)NC(=O)[C@H](CC(C)C)NC(=O)[C@H](CCC(=O)O)NC(=O)[C@H](CO)NC(=O)[C@H](C)N)[C@@H](C)O)C(=O)NCC(=O)N[C@@H](Cc1c[nH]cn1)C(=O)N[C@@H](CC(C)C)C(=O)N[C@@H](CO)C(=O)N[C@@H](C)C(=O)N[C@@H](CCC(=O)O)C(=O)N[C@@H](CC(C)C)C(=O)N[C@@H](Cc1c[nH]cn1)C(=O)N[C@@H](CCC(=O)O)C(=O)N[C@@H](CC(C)C)C(=O)N[C@@H](C)C(=O)N[C@H](C(=O)N[C@@H](CC(C)C)C(=O)N1CCC[C@H]1C(=O)N[C@@H](CCCNC(=N)N)C(=O)N[C@H](C(=O)N[C@@H](CCC(=O)O)C(=O)N[C@H](C(=O)NCC(=O)N[C@@H](CO)C(=O)NCC(=O)N[C@@H](CO)C(=O)N1CCC[C@H]1C(N)=O)[C@@H](C)O)[C@@H](C)O)[C@@H](C)O [72bb, H—ASELSTAALGHLSAELHELATLPRTETGSGSP—NH2] (H-ASELSTAALGHLSAELHELATLPRTETGSGSP-NH2)
11.15 | 11.70 | 9.01 | – | – | – | – | – | – | – | – | CC(C)C[C@H](NC(=O)[C@H](CCC(=O)O)NC(=O)[C@H](Cc1c[nH]cn1)NC(=O)[C@H](CC(C)C)NC(=O)[C@H](CCC(=O)O)NC(=O)[C@H](C)NC(=O)[C@H](CO)NC(=O)[C@H](CC(C)C)NC(=O)[C@H](CCCNC(=N)N)NC(=O)CNC(=O)[C@H](CC(C)C)NC(=O)[C@@H](NC(=O)[C@H](C)NC(=O)[C@@H](NC(=O)[C@H](CO)NC(=O)[C@@H](NC(=O)[C@H](CCC(=O)O)NC(=O)[C@H](CO)NC(=O)[C@H](C)N)C(C)C)[C@@H](C)O)C(C)C)C(=O)N[C@@H](C)C(=O)N[C@H](C(=O)N[C@@H](CC(C)C)C(=O)N1CCC[C@H]1C(=O)N[C@@H](CCCNC(=N)N)C(=O)N[C@H](C(=O)N[C@@H](CCC(=O)O)C(=O)N[C@H](C(=O)NCC(=O)N[C@@H](CO)C(=O)NCC(=O)N[C@@H](CO)C(=O)N1CCC[C@H]1C(N)=O)[C@@H](C)O)[C@@H](C)O)[C@@H](C)O [86bb, H—ASEVSTAVLGRLSAELHELATLPRTETGSGSP—NH2] (H-ASEVSTAVLGRLSAELHELATLPRTETGSGSP-NH2)
10.34 | 11.05 | 7.70 | – | – | – | – | – | – | – | – | CC(C)C[C@H](NC(=O)[C@H](CCC(=O)O)NC(=O)[C@H](Cc1c[nH]cn1)NC(=O)[C@H](CC(C)C)NC(=O)[C@H](CCC(=O)O)NC(=O)[C@H](C)NC(=O)[C@H](CO)NC(=O)[C@H](CC(C)C)NC(=O)[C@H](CCCNC(=N)N)NC(=O)CNC(=O)[C@H](CC(C)C)NC(=O)[C@@H](NC(=O)[C@H](C)NC(=O)[C@@H](NC(=O)[C@@H](NC(=O)[C@H](CC(C)C)NC(=O)[C@H](CCC(=O)O)NC(=O)[C@H](CO)NC(=O)[C@H](C)N)[C@@H](C)O)[C@@H](C)O)C(C)C)C(=O)N[C@@H](C)C(=O)N[C@H](C(=O)N[C@@H](CC(C)C)C(=O)N1CCC[C@H]1C(=O)N[C@@H](CCCNC(=N)N)C(=O)N[C@H](C(=O)N[C@@H](CCC(=O)O)C(=O)N[C@H](C(=O)NCC(=O)N[C@H](C(=O)NCC(=O)N[C@H](C(=O)N1CCC[C@H]1C(N)=O)[C@@H](C)O)[C@@H](C)O)[C@@H](C)O)[C@@H](C)O)[C@@H](C)O [95bb, H—ASELTTAVLGRLSAELHELATLPRTETGTGTP—NH2] (H-ASELTTAVLGRLSAELHELATLPRTETGTGTP-NH2)
10.96 | 11.22 | 8.93 | – | – | – | – | – | – | – | – | CC(C)C[C@H](NC(=O)CNC(=O)[C@H](CO)NC(=O)[C@@H](N)CC(C)C)C(=O)N[C@@H](CO)C(=O)N[C@H](C(=O)N[C@@H](C)C(=O)N[C@H](C(=O)N[C@@H](CC(C)C)C(=O)NCC(=O)N[C@@H](CCCNC(=N)N)C(=O)N[C@@H](CC(C)C)C(=O)N[C@@H](CO)C(=O)N[C@@H](CCC(N)=O)C(=O)N[C@@H](CCC(=O)O)C(=O)N[C@@H](CC(C)C)C(=O)N[C@@H](Cc1c[nH]cn1)C(=O)N[C@@H](CCC(=O)O)C(=O)N[C@@H](CC(C)C)C(=O)N[C@@H](CCC(N)=O)C(=O)N[C@H](C(=O)N[C@@H](Cc1ccc(O)cc1)C(=O)N1CCC[C@H]1C(=O)N[C@@H](CCCNC(=N)N)C(=O)N[C@H](C(=O)N[C@@H](CCC(=O)O)C(=O)N[C@H](C(=O)NCC(=O)N[C@@H](CO)C(=O)N[C@@H](CCC(N)=O)C(=O)N[C@H](C(=O)N[C@@H](Cc1ccc(O)cc1)C(N)=O)[C@@H](C)O)[C@@H](C)O)[C@@H](C)O)[C@@H](C)O)C(C)C)[C@@H](C)O [127bb, H—LSGLSTAVLGRLSQELHELQTYPRTETGSQTY—NH2] (H-LSGLSTAVLGRLSQELHELQTYPRTETGSQTY-NH2)
11.15 | 11.22 | 9.05 | ≥ 200 | ≥ 200 | ≥ 200 | ≥ 200 | ≥ 200 | ≥ 200 | ≥ 200 | ≥ 200 | CC[C@H](C)[C@H](NC(=O)[C@@H](NC(=O)[C@H](C)NC(=O)[C@@H](NC(=O)[C@H](CO)NC(=O)[C@H](CC(C)C)NC(=O)[C@H](CCC(=O)O)NC(=O)[C@H](CO)NC(=O)[C@H](C)NC(=O)[C@H](CCC(=O)O)NC(=O)CCCCCCCCCCCCCCCCC(=O)O)[C@@H](C)O)C(C)C)C(=O)NCC(=O)N[C@@H](CCCNC(=N)N)C(=O)N[C@@H](CC(C)C)C(=O)N[C@@H](CO)C(=O)N[C@@H](C)C(=O)N[C@@H](CCC(=O)O)C(=O)N[C@@H](CC(C)C)C(=O)N[C@@H](Cc1c[nH]cn1)C(=O)N[C@@H](CCC(=O)O)C(=O)N[C@@H](CC(C)C)C(=O)N[C@@H](C)C(=O)N[C@H](C(=O)N[C@@H](CC(C)C)C(=O)N1CCC[C@H]1C(=O)N[C@@H](CCCNC(=N)N)C(=O)N[C@H](C(=O)N[C@@H](CCC(=O)O)C(=O)N[C@H](C(=O)NCC(=O)N1CCC[C@H]1C(=O)N[C@@H](CCC(=O)O)C(=O)N[C@@H](CO)C(=O)N1CCC[C@H]1C(N)=O)[C@@H](C)O)[C@@H](C)O)[C@@H](C)O [compound 26, [N-terminal(C18 diacid), 9V, 10I]mimylin] ({C18 diacid}-EASELSTAVIGRLSAELHELATLPRTETGPESP-NH2)
